Assay [1] deals with T1, Type I NOS (rat brain cytosol) (Rattus norvegicus, UniProt P29476).
T1 construct: type I isozyme from rat brain cerebellum; from tissue; host or cells: rat brain (cytosol; cerebellum, phosphocellulose-purified)
The assay is described as follows: [3H]-Arginine to [3H]-Citrulline conversion, rat brain cytosol (Type I NOS). The note with it: for inhibition at 100 µM: read-out: Percent Inhibition of [3H]-Citrulline Formation, Rat Brain Cytosol; for IC50: read-out: Inhibition of [3H]-Citrulline Formation IC50, Rat Brain Cytosol. Format: biochemical. From the text:
(§1) The enzyme NO synthase produces EDRF/NO and citrulline from L-arginine (Bredt and Snyder, Proc. Nat'l. Acad. Sci. USA, 1989, 87: 682-5). The enzymatic generation of EDRF/NO is monitored by measuring the conversion of [^3 H]-L-arginine to [^3 H]-L-citrulline. An inhibitor of this specific enzymatic reaction lowers the conversion rate and, thus, the amount of [^3 H]-L-citrulline produced. Likewise, a compound acting as a substrate would compete with L-arginine and thereby lower the conversion rate.
(§2) The conversion of L-arginine to L-citrulline was assayed as reported previously (Bredt and Snyder, Proc. Nat'l Acad Sci USA, 1989, 87: 682-5) with minor modifications. Briefly, samples of partially purified NO synthase, 50-100 μg of protein or 20 μL of cytosol (alternatively cytosolic preparations from RAW 264.7 cells, a murine monocyte-macrophage cell line, induced for 16 hours with 10 μg/mL medium of Lipopolysaccharide (LPS), or partially purified (phosphocellulose column) type I isozyme from rat brain cerebellum, or partially purified isozyme III from bovine aortic endothelial cells (BAE cells)) were incubated for 20 minutes (3 minutes in the cases of purified enzyme preparations) at 25° C. in the presence of 10 μM L-[2,3-^3 H]arginine (55 Ci /mmol) (containing 34 nM (0.2 μCi)), 1 mM NADPH, and 2 Mm CaCl2 in a final volume of 100 μL. The reaction was stopped by adding 1 mL of stop buffer (2 mM EGTA, 2 mM EDTA 20 mM Hepes, pH 5.5). The total volume was then applied to a 1 mL Dowex AG 50 WX-8 column (Na^+ form, Bio-Rad) that had been pre-equilibrated with the stop buffer. L-[2,3-^3 H]Citrulline was eluted (2×) with 0.5 mL of stop buffer and radioactivity was determined by liquid scintillation counting.
(§3) The following Tables present data on the inhibition of [^3 H]-citrulline formation from [^3 H]-L-arginine by the compounds of the invention in various preparations representative of the isoforms of NOS, Types I, II, and III NOS as represented by rat brain cytosol, […] macrophage cell cytosol, and BAE homogenate preparation respectively.

In assay [2] the target is T2, Type III NOS (BAE homogenate preparation) (Bos taurus, UniProt P29473).
T2 construct: partially purified isozyme III from bovine aortic endothelial cells (BAE cells); endogenous in cells; host or cells: bovine aortic endothelial (BAE) cells
The assay is described as follows: [3H]-Arginine to [3H]-Citrulline conversion, BAE homogenate preparation (Type III NOS). Format: biochemical, bovine. The note with it: for inhibition at 100 µM: read-out: Percent Inhibition of [3H]-Citrulline Formation, BAE Preparation; for IC50: read-out: Inhibition of [3H]-Citrulline Formation IC50, BAE Preparation.
Excerpt: as §1, §2, §3

For assay [3], the target named is T3, Type II NOS (RAW macrophage cell cytosol) (Mus musculus, UniProt P29477).
T3 construct: cytosolic preparations from RAW 264.7 cells; endogenous in cells; host or cells: RAW 264.7 cells, LPS-induced for 16 hours
The experiment in a line: [3H]-Arginine to [3H]-Citrulline conversion, RAW cell cytosol (Type II NOS). The assay is classed as biochemical, murine. As to conditions: LPS induced; for inhibition at 100 µM: read-out: Percent Inhibition of [3H]-Citrulline Formation, RAW Cell Cytosol; for IC50: read-out: Inhibition of [3H]-Citrulline Formation IC50, RAW Cell cytosol.
Excerpt: as §1, §2, §3

Assay [4] has as its system RFL-6 rat fetal lung fibroblast cells. The experiment in a line: cGMP assay, RFL-6 cells as detectors of EDRF/NO. The assay is classed as cell-based. As to conditions: presence of superoxide dismutase; 6-well plates. From the text: In those instances where it is suspected that the test substance is acting as a substrate rather than an inhibitor, the EDRF/NO may be estimated. For this confirmation bioassay, a method for quantification of endothelium-derived relaxing factor (EDRF) is utilized and is described in detail below. This technique, measuring cyclic GMP responses of RFL-6 rat fetal lung fibroblast cells to estimate NO or EDRF is sensitive, simple and quite useful for the evaluation of compounds that regulate EDRF/NO release from various endothelial cells, or other cells or tissues (such as for example RAW cells (induced with LPS) and N1E-115 cells). (cf. Ishii, K., et al., American Journal of Physiology, 1991,261:(2 pt 2) H598-603). The cyclic GMP measured is an indirect measure of the amount of EDRF/NO produced by NO synthase, so compounds that reduce the amount of cyclic GMP produced are termed inhibitors of NO synthase, and those that increase cyclic GMP in the absence of exogenous L-arginine are termed substrates or stimulators of NO synthase.
This is a new bioassay method for detection and quantification of endothelium-derived relaxing factor (EDRF) wherein cyclic GMP responses of RFL-6 rat fetal lung fibroblast cells are utilized to estimate the activity of nitric oxide (NO) and EDRF. […]

In the case of `CC(C)(C)OC(=O)N1[C@H](/C=C/CNC(=N)N)COC1(C)C` [Example 22, 3-(1,1-Dimethylethyl)-(R)-4-(3-guanidinopropen-1.E-yl)-2,2-dimethyl-3-oxazolidinecarboxylate], the inhibition at 100 µM in assay [1] was determined as 70%; in assay [2], 50%; in assay [3] it was 97%. Moreover, the IC50 was 40 µM in assay [1], 100 µM in assay [2] and below 100 µM in assay [3].

For `N=C(N)NC/C(=C/[C@H](N)CO)Cc1ccccc1` [Example 25, N^G -Guanidinyl-4(S)-Amino-2-benzyl-pent-2,E-ene-5-ol], the values for the inhibition at 100 µM in assay [1], in assay [2] and in assay [3] were 80%, 14% and 20%, respectively. Besides, the IC50 in assay [1] is 40 µM; in assay [2], above 100 µM; in assay [3], above 100 µM.

As to `CNC(=N)NC/C(C)=C/[C@H](N)CO` [Example 27, N^G -Methylguanidinyl-4(S)-Amino-2-methyl-pent-2,E-ene-5-ol], the inhibition at 100 µM in assay [1] stood at 86%; in assay [2], 46%; in assay [3] it was 97%. In addition, the IC50 is 20 µM in assay [1], above 100 µM in assay [2] and 20 µM in assay [3].

For nitric oxide [NO], the “lowest concentration of NO to which RFL-6 cells responded” value in assay [4] is listed as 2 nM.

The record behind these values is patent US5478946A, “Guanidino compounds as regulators of nitric oxide synthase” (Abbott Laboratories, priority 1993, dated 1995).
